IC50 data for 2 molecules are collected here from ChEMBL document CHEMBL1140860, “Synthesis and evaluation of dihydroartemisinin and dihydroartemisitene acetal dimers showing anticancer and antiprotozoal activity” (Bioorg Med Chem, 2009).

Common to all, as to type: functional, cell-based
Common to all, as to settings: Homo sapiens

For assay [1], the system named is HUVEC. The assay is described as follows: Antiangiogenic activity against HUVEC assessed as growth inhibition by NCI antiangiogenesis assay.
Assay [2] concerns HUVEC. As to the kind of experiment: Antiangiogenic activity against HUVEC assessed as inhibition of VEGF-induced cell migration by NCI antiangiogenesis assay.
The test system of assay [3] is HUVEC. The assay is described as follows: Antiangiogenic activity against HUVEC assessed as inhibition of capillary-like structure formation by NCI antiangiogenesis assay.

Usually IC50 stands for the concentration needed to halve the response being measured. Take `CO[C@@H]1[C@H](OC(=O)NC(=O)CCl)CC[C@]2(CO2)[C@H]1[C@@]1(C)O[C@@H]1CC=C(C)C` [O-CHLOROACETYLCARBAMOYLFUMAGILLOL]: the results for the IC50 in the assay on HUVEC [1], in the assay on HUVEC [2] and in the assay on HUVEC [3] were 3.16 µM, 0.5 µM and 1 µM, respectively.
As to `CC(=O)O[C@H]1C(=O)[C@@]2(C)[C@H]([C@H](OC(=O)c3ccccc3)[C@]3(O)C[C@H](OC(=O)[C@H](O)[C@@H](NC(=O)c4ccccc4)c4ccccc4)C(C)=C1C3(C)C)[C@]1(OC(C)=O)CO[C@@H]1C[C@@H]2O` [PACLITAXEL], the IC50 in the assay on HUVEC [1] worked out at 1.65 µM; in the assay on HUVEC [2], 0.1 µM; with HUVEC [3], 0.05 µM.
